The values that follow come from patent publication US20220233556A1, “COMPOSITIONS AND METHODS FOR TREATING OPHTHALMIC CONDITIONS” (Medicon Pharmaceuticals, Inc., priority 2017, published 2022).

One data set concerns corneal sensitivity. Kind of data set: Corneal touch threshold (CTT) assay, Cochet-Bonnet aesthesiometer. The settings on record: commercially available form, one eye drop. The class given is in vivo, rabbits. The method, then:
FIGS. 10A and 10B illustrate the ocular analgesic effect of PS. FIG. 10A: One drop of PS 0.5%, vehicle, or lidocaine was applied to one eye of rabbits (n=4/group) and the corneal touch threshold (CTT) was determined using an Eshesiometer. Vehicle had no effect on CTT (not shown; overlaps with the 0 value horizontal line). Values=mean±SEM. FIG. 10B: PS 0.5% in formulations differing in pH as indicated produced different analgesic responses in rabbits. The areas under each curve (AUC), indicted in the figure, that quantify these responses vary by as much as >5 fold. Values are the average of 2; all were within 11% of each other.
FIGS. 11A and 11B illustrates the effect of various concentrations of PS on corneal sensitivity determined by the corneal touch threshold (CTT) assay. The CTT score is expressed as length of filament. Measurements were performed at the indicated time points after a single application of PS as an eye drop. Rabbits with normal or dry eyes were studied (n=6 eyes per group). Dry eyes were induced by Concanavalin A injection as described in the text. The % PS content in each study is shown. The numbers in parentheses indicate the corresponding value of the area under the curve. Values=mean±SEM.
FIGS. 12A and 12B illustrate the effect of various drugs on corneal sensitivity determined by the corneal touch threshold (CTT) assay described herein. Each drug was used in its commercially available form; one eye drop of each was applied. The numbers in parentheses indicate the corresponding value of the area under the curve. Values=mean±SEM.
The analgesic effect of PS was examined on the surface of the eye by determining the corneal touch threshold (CTT) using the Luneau Cochet-Bonnet Aesthesiometer (Western Ophthalmics, Lynwood, Wash.) an adjustable nylon monofilament with a defined diameter, which is applied in different lengths to the center of the cornea.
In this embodiment, the composition of the PS preparation was: 0.5% PS, 18% (2-hydroxypropyl)-β-cyclodextrin (HP-β-CD), 1-4% Tween 80. Preparation Method: HP-β-CD was dissolved in purified water maintained in a 50° C. water bath. PS was added into this solution and kept at 50° C. overnight with stirring at 500 rpm until PS was fully dissolved. Tween 80 was added into the PS HP-β-CD solution, which was then centrifuged at 3000 rpm for 10 min to remove undissolved particles. The supernatant was collected and pH was adjusted to the desired value using a NaOH solution. The analgesic effect of PS was examined as above.
The effect of PS and other compounds on corneal sensitivity was determined in rabbits with normal or dry eyes using the CTT assay as above; DED was induced by Concanavalin A as previously described. The CTT score, expressed as filament length in mm, of normal eyes was 5.56±0.11 mm (mean±SEM for this and subsequent values) and in dry eyes 4.17±0.12 mm; the difference between the two is statistically significant (p<0.0001).

In another data set the test system is Con A-induced dry eye. Kind of data set: Con A-induced dry eye disease (DED) in rabbits: TBUT, tear osmolarity, STT, tear lactoferrin. The class given is in vivo, New Zealand White (NZW) rabbits. The conditions noted are these: 1 week of treatment, comparison with ophthalmic NSAIDs (FIG. 5). How it is done: Con A was injected under ultrasound guidance into all the lacrimal glands and the success of the injection was verified by a post-injection ultrasound image (see FIG. 1 and FIG. 2). […] This variation explains why the blind injections recommended in the original method are often unsuccessful. This was confirmed by mixing the Con A solution with methylene blue and tracking its course after injection. In about ⅓ of the cases, Con A ended up outside the gland.
Four parameters of efficacy were evaluated instead of the usual one or two. They include (a) the tear break up time (TBUT), determined using 0.2% fluorescein over the eye and recording the time taken to develop black dots, lines or obvious disruption of the fluorescein film; (b) tear osmolarity, measured using TearLab Osmolarity Test and following the manufacturer's instructions (TearLab Corp., San Diego, Calif.); (3) Schirmer tear test (STT), determined using Schirmer strips (EagleVision, Denville, N.J.) inserted between the cornea and the palpebral conjunctiva at the mid-point of the lower lid and measuring the length of moistened strip at 5 min; and (4) tear lactoferrin levels measured by ELISA kit (MyBiosource, San Diego, Calif.) following the instructions of the manufacturer. All four have been used in clinical practice and correlate with the clinical activity of the disease. The STT is the least reliable and, as result, it is clinically used less than half as frequently as TBUT.
The injections of Con A to the lacrimal glands were repeated weekly as needed. When longer than a 1-week periods of study are needed, repeat injections prolong dry eye for at least 3 weeks, making the originally acute model chronic.
PS Suppresses Con A—Induced Dry Eye in Rabbits. The effect of PS on dry eye was determined in New Zealand White (NZW) rabbits, 2-3 kg (Charles River Labs, Waltham, Mass.). These rabbits were housed singly in rooms with strict temperature (70±5° F.) and humidity (45±5%) control and acclimated for at least 2 weeks prior to induction of dry eye by injection of Con A as above. NZW rabbits with Con A-induced dry eye (three sets of injections) were treated with PS formulated as nanoparticles and administered topically as eye drops 3×/day for 21 days, starting on the day of Con A injection. […] Similar results were obtained on days 5 and 14 (data not shown). […]
The efficacy of lower concentrations of PS. The efficacy of lower concentrations of PS, 0.1% and 0.2% in DED, was also evaluated. The same animal model (rabbits with Concanavalin A-induced DED) was used. The same methodology described herein was followed, except that PS was administered as two eye drops per eye (˜25 μL each) four times a day. PS was formulated in: 10% (2-hydroxypropyl)-β-cyclodextrin, 4% Tween 80, 2.5% Vitamin E TPGS, 1.4% polyvinyl alcohol (13,000-26,000 molecular weight), 0.001% polyquad, as described herein. The Table below summarizes the corresponding findings: […]

The subject of another data set is PGE2. Briefly: PGE2 levels in tears and cornea of rabbits (ELISA). The class given is in vivo. The conditions noted are these: rabbits with Con A-induced DED, administered once topically, 1 h later. The method, then: FIGS. 9A and 9B illustrate that PS preserves the levels of PGE2 in tears and the cornea. In FIG. 9A, PGE2 levels were determined by ELISA in tears collected on day 7 from naïve rabbits and rabbits with Con A-induced DED treated for 1 week with vehicle or PS. In FIG. 9B, PGE2 levels were further examined. Upper panel: PGE2 levels in the tears of naïve rabbits and rabbits with Con A-induced DED treated for 1 h with PS or ketorolac as in Methods. Lower panel: PGE2 levels in the corneal tissue of naïve rabbits and rabbits with Con A-induced DED treated for 1 week with vehicle or PS or ketorolac or diclofenac. n=8 eyes/group. Values=mean±SEM.
It was determined that the levels of PGE2 in rabbit tears in three groups of rabbits, naïve and those with Con A-induced DED that were treated for 1 week either with PS or vehicle.
In an acute experiment, administered once topically to the eyes of four groups of rabbits with Con A-induced DED was one of the following: vehicle, PS, ketorolac or diclofenac; the latter two are NSAIDs used for the treatment of ocular inflammation and pain. It was determined that the levels of PGE2 in the cornea of these rabbits obtained 1 h later as well as in the corneas of naïve rabbits.
(In general: In an ELISA, binding on a coated surface is turned into a signal by an enzyme label.)

The nature of data set [1]: Ocular PK study of PS nanoparticles (mPEG-PLA), topical eye drops. The class given is in vivo, New Zealand white rabbits. The settings on record: PS and its metabolites. Details: AUC(0-t) / AUC0-16h, cornea / AUC0-16h, conjunctiva: concentration or dose not given beside the values. How it is done:
Composition: ˜3.0-3.5% PS, 96.5˜97% methoxy poly(ethylene glycol)-poly(lactide) (mPEG-PLA).
Preparation Method: Oil phase: 150 mg of PS and 1 g of PEG-PLA (Akina, Inc) were dissolved in 20 mL dichloromethane (DCM). Water phase: 365 mg of sodium cholate were dissolved in 60 ml of purified water. 5 mL of the oil phase was gently added into 15 mL of the water phase in a 50 mL Eppendorf conical tube. To create an emulsion, we used robe sonication for 2 min at 75% output (Branson 150, Fisher Scientific™, USA); the watt output was 12-13. The emulsion was transferred into a 100 mL beaker and stirred overnight at 600 rpm in a chemical hood until the DCM was fully evaporated. This was followed by centrifugation at 14,000 rpm for 1 h (Dupont, RC-5C). Then, the supernatant was transferred to another tube into which 3 mL of PBS were added to resuspend the nanoparticles. The nanoparticle solution was centrifuged for 6-7 seconds to remove aggregates. This supernatant was the final preparation.
Ocular PK study: PS formulated in nanoparticles as above was administered topically as eye drops to New Zealand white rabbits. The biodistribution of PS in ocular tissues at the indicated time points post administration was determined by HPLC.

Data set [2] can be described thus: Rabbit ocular PK study of PS emulsion (2% PS). The class given is in vivo, New Zealand rabbits. The settings on record: 2% PS emulsion, three 25 μL eye drops; PS and its metabolites. The method, then:
A formulation includes 2% PS; 5% Propylene glycol, 10% Mineral oil, 4% Tween 60, 4% Tween 80, 10% (2-hydroxypropyl)-β-cyclodextrin (HP-β-CD). Preparation method (2 mL scale): Oil phase: weight PS into glass vial, add propylene glycol, stir at 50° C. to obtain a clear solution. Then add mineral oil, stir to obtain a clear solution. Water phase: Dissolve HP-β-CD, […] and Tween 80 into water. Add water phase into oil phase, probe-sonicate for 5 sec, 8 times, with 5 sec intervals. Resultant emulsion is filtrated through 0.22 μm filter.
Rabbit ocular pharmacokinetic (PK) study: PS was administered to New Zealand rabbits topically to the eye; as three 25 μL eye drops, 5 min apart. Rabbits were euthanized at eight specified time points between 0.25 to 16 h, ocular tissues were dissected and PS was extracted with acetonitrile and its tissue levels as well as those of its metabolites were determined by HPLC as described (Xie G. et al., Br J Pharmacol 165:2′52-2166; 2012).

Take `CS(=O)(=O)c1cccc(C[C@H](NC(=O)c2c(Cl)cc3c(c2Cl)CCN(C(=O)c2ccc4ccoc4c2)C3)C(=O)O)c1` [Lifitegrast, lifitegrast, reference compound]: in the data set on corneal sensitivity, the “effect on corneal sensitivity (CTT), dry eyes” value is reported as “lack any ocular analgesic effect” and the “effect on corneal sensitivity (CTT), normal eyes” value is “lack any ocular analgesic effect”.

On to `Nc1c(CC(=O)O)cccc1C(=O)c1ccc(Br)cc1` [bromfenac, reference compound], for which, in the data set with corneal sensitivity, the “effect on corneal sensitivity (CTT), dry eyes” value is “no analgesic effect” and the “effect on corneal sensitivity (CTT), normal eyes” value is listed as “display analgesic efficacy”.

In the case of `O=C(O)Cc1ccccc1Nc1c(Cl)cccc1Cl` [diclofenac, reference compound], in the data set on Con A-induced dry eye, the STT result is “failed to improve”, the TBUT entry was “failed to improve” and the osmolarity result is on record as “failed to improve”. Moreover, in the data set with PGE2, the “PGE2 levels in the cornea” value was “suppressed nearly completely”.

As for `CSc1ccc(/C=C2/C(C)=C(CC(=O)O)c3cc(F)ccc32)cc1` [sulindac sulfide], in data set [1], the Cmax, conjunctiva was 0 nM and the Cmax, cornea was determined as 600 nM. Moreover, in data set [2], the “Cmax, aqueous humor” value was found to be 2.0 μm; the “Cmax, conjunctiva” value turned out to be 0.0 μm; the “Cmax, cornea” value is 0.0 μm.

For the compound `CC1=C(CC(=O)O)c2cc(F)ccc2/C1=C\c1ccc(S(C)(=O)=O)cc1` [sulindac sulfone], in data set [1], the “AUC0-16h, conjunctiva” value is 7.3 µM·h; the “AUC0-16h, cornea” value turned out to be 10 µM·h; the Cmax, conjunctiva amounted to 1600 nM; the Cmax, cornea was found to be 1300 nM. For the same compound, the “Tmax, cornea” value in data set [1] is given as 4 h. Besides, in data set [2], the “AUC0-16h, conjunctiva” value came to 3.2 µM·h; the “AUC0-16h, cornea” value was 24.4 µM·h; the “Cmax, aqueous humor” value came out at 0.0 μm; the “Cmax, conjunctiva” value is 0.8 μm. In data set [2], the “Cmax, cornea” value is 4.0 μm; the “Tmax, aqueous humor” value was found to be 0.0 h; the “Tmax, conjunctiva” value was determined as 2.0 h; the “Tmax, cornea” value was found to be 4.0 h.

With `CC1=C(CC(=O)O)c2cc(F)ccc2/C1=C\c1ccc([S+](C)[O-])cc1` (stereo not shown) [sulindac, reference compound], in data set [1], the Cmax, conjunctiva was found to be 3800 nM and the Cmax, cornea was 3600 nM. Besides, in data set [2], the “Cmax, aqueous humor” value was determined as 1.0 μm; the “Cmax, conjunctiva” value was 4.2 μm; the “Cmax, cornea” value is reported as 8.7 μm.
